Measurements as given in patent US20260068882A1, “ARTHROPOD CONTROLLING COMPOSITION” (Firmenich SA, priority 2019, published 2026).

Tested on: Aedes aegypti
Test: In vitro Warm Body assay, mosquitoes landing on treated warm body
Assay type: in vivo
Details: for repellent effect with increasing amount of stimuli (in words): 0.0016%, 0.04% and 1% in ethanol (FIG. 10)
Description: (§1) The arthropod controlling effect according to the present invention is determined on mosquitoes using an adapted Warm Body assay as defined in Kröber T, Kessler S, Frei J, Bourquin M, Guerin P M. An in vitro assay for testing mosquito controlling compounds employing a warm body and carbon dioxide as a behavioral activator. J Am Mosq Control Assoc. 2010; 26:381-386.
(§2) The controlling effect according to the present invention is determined by testing the Warm Body assay against the yellow fever mosquito, Aedes aegypti Rockefeller strain. […] Observations of controlling efficacy were made on host-seeking females of uniform age, 5 to 10 days old selected as mentioned in the publication mentioned hereinabove. Tested hungry females had access to 10% sugar solution but were not blood-fed.
(§3) The published protocol has been adapted in not manually counting the landing mosquitoes but automatically using an automatic counting software, the switch from Anopheles gambiae to A. aegypti led to a decrease of mosquitoes' number placed in the tested cage due to the size difference (i.e. 30 mosquitoes instead of 50) and to an increase of lighting as A. aegypti is a diurnal mosquitoes (i.e. 150 lux instead of 4 lux).
as §2, with “A.” for “Aedes”
as §1, with “The” for “The arthropod”, “was assessed” for “is determined on mosquitoes”
as §3, with “Aedes” for “A.”
In this in-vitro assay the number of A. aegypti landing on a warm body treated with the tested stimuli was measured in order to assess the repellency effect. Three replicates were carried on the three different doses: 0.0016%, 0.04% and 1% in ethanol, using 25 A. aegypti 10-12 days old females per cage.
In this in-vitro assay, the number of Aedes aegypti landing on a warm body treated with the tested stimuli was measured in order to assess the repellency effect. Three replicates were carried on the three different doses: 0.0016%, 0.04% and 1% in ethanol.
In this in-vitro assay, the number of Aedes aegypti landing on a warm body treated with the tested stimuli was measured in order to assess the repellency effect. One replicate was carried at different doses ranging from 0.0016% up to 1% in ethanol.

[1] = Aedes aegypti, read-out: decrease of landings

Compound | number of mosquitoes landed on the Warm Body (0.0016% in ethanol (Table 6)) | number of mosquitoes landed on the Warm Body (0.04% in ethanol (Table 6)) | number of mosquitoes landed on the Warm Body (1% in ethanol (Table 6)) | also measured
(2RS,4aRS,9bRS)-2,4a,7-trimethyl-4,4a,5,9b-tetrahydroindeno[1,2-d][1,3]dioxine + (2RS,4aSR,9bSR)-2,4a,7-trimethyl-4,4a,5,9b-tetrahydroindeno[1,2-d][1,3]dioxine | 30 | 0 | 0 | number of mosquitoes landed on the Warm Body (0.04% in ethanol (Table 6), listed as blend of (2RS,4aRS,9bRS)-2,4a,7-trimethyl-4,4a,5,9b-tetrahydroindeno[1,2-d][1,3]): no mosquito landed at all; number of mosquitoes landed on the Warm Body (1% in ethanol (Table 6), listed as blend of (2RS,4aRS,9bRS)-2,4a,7-trimethyl-4,4a,5,9b-tetrahydroindeno[1,2-d][1,3]): zero
CC1(C)OC[C@H]2Cc3ccccc3[C@H]2O1 (racemic) [(4aRS,9bSR)-2,2-dimethyl-4,4a,5,9b-tetrahydroindeno[1,2-d][1,3]dioxin] | 30 | 1 | 0 | –
Cc1ccc2c(c1)[C@@H]1O[C@H](C)OC[C@]1(C)C2 [(2R,4aS,9bS)-2,4a,8-trimethyl-4,4a,5,9b-tetrahydroindeno[1,2-d][1,3]dioxin] | 40 | 8 | 10 | –
Cc1ccc2c(c1)C1OC(=O)OCC1(C)C2 (centres unmarked) [4a,8-dimethyl-indano[1,2-d]-1,3-dioxan-2-one] | – | – | – | decrease of landings (0.04% in ethanol (FIG. 8)): ~70%
(2RS,4aRS,9bSR)-2-methyl-4,4a,5,9b-tetrahydroindeno[1,2-d][1,3]dioxin + (2RS,4aSR,9bRS)-2-methyl-4,4a,5,9b-tetrahydroindeno[1,2-d][1,3]dioxin | 28 | 2 | 2 | –
(1RS,2RS)-2-(hydroxymethyl)-2,6-dimethyl-2,3-dihydro-1H-inden-1-ol+(1RS,2SR)-2-(hydroxymethyl)-2,6-dimethyl-2,3-dihydro-1H-inden-1-ol | – | – | – | repellent effect with increasing amount of stimuli (in words): significant lower repellent effect than DEET or IR3535
Cc1ccc2c(c1)C(O)C(C)(CO)C2 (racemic) [2-(hydroxymethyl)-2,6-dimethyl-2,3-dihydro-1H-inden-1-ol] | – | – | – | repellent effect with increasing amount of stimuli (in words): low decrease of landing
Cc1ccc2c(c1)C[C@]1(C)COCO[C@H]21 (racemic) [(4aRS,9bRS)-4a,7-dimethyl-4,4a,5,9b-tetrahydroindeno[1,2-d][1,3]dioxine] | 17 | – | – | –
Cc1ccc2c(c1)CC(C)(C(=O)O)C2 (centres unmarked) [2,5-dimethyl-2,3-dihydro-1H-indene-2-carboxylic acid] | – | – | – | pest or weed control at 0.0016 % [1]: 4 to 29%
Cc1ccc2c(c1)[C@H]1OCOC[C@@]1(C)C2 (racemic) [(4aRS,9bRS)-4a,8-dimethyl-4,4a,5,9b-tetrahydroindeno[1,2-d][1,3]dioxin] | 34 | 20 | 5 | –
CCc1ccc2c(c1)CC(C)(CO)C2 (centres unmarked) [5-ethyl-2-methyl-2-indanmethanol] | – | – | – | pest or weed control at 0.04 % [1]: ~70%
